Measured values as given in publication PMC11078216, “Discovery of potent and selective activity-based probes (ABPs) for the deubiquitinating enzyme USP30” (RSC Chemical Biology, 2024).

Assays:
Assay in all cases: ABPP chemical proteomics (LC-MS/MS) in HEK293T cells
Type in all cases: cell-based
ISOC1 = target: T1, ISOC1 (Homo sapiens, UniProt Q96CN7)
T1 construct: endogenous in cells; host or cells: HEK293T
T1 sequence (Q96CN7 1-298): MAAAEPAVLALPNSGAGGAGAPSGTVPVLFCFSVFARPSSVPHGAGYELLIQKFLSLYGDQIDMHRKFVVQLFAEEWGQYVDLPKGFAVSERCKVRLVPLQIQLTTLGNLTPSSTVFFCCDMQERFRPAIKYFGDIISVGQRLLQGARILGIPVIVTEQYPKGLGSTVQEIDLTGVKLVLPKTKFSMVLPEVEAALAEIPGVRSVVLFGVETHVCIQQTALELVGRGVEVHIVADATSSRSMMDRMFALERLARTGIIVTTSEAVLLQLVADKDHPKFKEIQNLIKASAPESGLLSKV
Procedure: (§1) To explore the selectivity of IMP-2587 and IMP-2586 across the whole proteome, we performed quantitative activity-based protein profiling (ABPP) in HEK293T cells following treatment with IMP-2587 or IMP-2586 (Fig. 3a). After ABP incubation, cells were lysed, and probe-labelled proteins were ligated to biotinylated capture reagents.[27] […] USP30 was outcompeted by corresponding parent inhibitors for each ABP (Fig. 5b and d and Tables S3 and S5, ESI ^†), confirming the high potency and rapid engagement of IMP-2587 and IMP-2586 in cells. […] DESI1 and DESI2 are small ubiquitin-related modifier (SUMO) proteases,[3,29–32] and IMP-2587 and IMP-2586 may offer a starting point for future development of DESI ABPs. […]
(§2) d) Live cell probe incubation, lysate click chemistry and precipitation 6-well HEK293T cells were incubated with media containing compounds ABP 2 and ABP 4 at indicated concentrations for 1 h at 37 °C. The cells were washed with PBS and lysed with lysis buffer (50 μL (1% (v/v) Triton X-100, 0.1% (w/v) sodium dodecyl sulfate (SDS), EDTA-free complete protease inhibitor cocktail (1×, Roche) in PBS on ice for 10 min. The lysates were scraped and transferred to corresponding Lo-Bind Eppendorfs. Each lysate was sonicated for 1 minute, and the samples centrifuges at 5,000 x g at 4 °C for 5 minutes to pellet insoluble cellular debris. The supernatant was collected, and protein concentration was determined using the DC Protein Assay (Bio-Rad) as per manufacturer’s instructions, and normalised to lowest concentrated sample (e.g. 1 mg/mL, using lysis buffer). The following “click mixture” was prepared separately, preparing 6 μL for every 100 μL of […]
(§3) Capture reagent (AzRB/AzT for ABP 2, YnT/YnB for ABP 4 10 mM in DMSO, 1 vol; final concentration […]
(§4) CuSO4 (50 mM in water, 2 vol; final concentration in reaction 1 mM)
(§5) TCEP (50 mM in water, 2 vol; final concentration in reaction 1 mM)
(§6) TBTA (10 mM in DMSO, 1 vol; final concentration in reaction 100 µM)
(§7) The click mixture was vortexed and incubated at room temperature for 2 min before 6 μL of the mixture was added to every 100 μL of lysate. The reaction mixtures were shaken at room temperature for 1 h before being quenched with EDTA (500 mM in H2O) to a final concentration of 10 mM.
(§8) Proteins were precipitated by adding H2O (1 vol), MeOH (2 vol) and CHCl3 (0.5 vol), vortexing briefly then centrifuging at 17,000 × g for 5 min. The top H2O/MeOH layer was discarded and the middle layer of protein pellet and lower CHCl3 layer retained. The suspension was washed with MeOH (300 μL), and sonicated to break up the pellet. The proteins were pelleted by centrifugation at 10,000–17000 × g for 5–10 min or until a compact pellet was formed. The protein pellet was washed once more with MeOH (1 mL). The pellet was resuspended by sonicating and completely dissolving in 1% (w/v) SDS in PBS (to 5 mg/mL protein) before being made up to 1 mg/mL protein with PBS. […]
(§9) f) Neutravidin biotin enrichment (Affinity pull-down)
(§10) Click chemistry and precipitation steps were carried out as described in section 3.2.d, on at least 400ug of protein per sample. The pellet was resuspended by sonicating and completely dissolving in 1% (w/v) SDS in HEPES 50 mM pH 8.0, before being made up to 1 mg/mL protein with HEPES 50 mM pH 8.0 to […]
(§11) achieve a final concentration of 0.2% SDS. 20uL of each samples was collected as TL (Total lysate) samples. Pull down of biotinylated proteins was achieved by incubating samples with pre-equilibrated (3x 1 mL washes with 0.2% (w/v) SDS in HEPES 50 mM pH 8 buffer) Pierce™ NeutrAvidin™ Agarose beads for 3 hours at room temperature. NeutrAvidin™ Agarose beads were used in ratio of 1 μL bead resin per 10ug of protein sample. The beads were subsequently washed by moderate shaking for 10 seconds then briefly pelleting by table-top centrifuge then vacuum aspirating the supernatant with fine-end pipette tips (to not disturb the agarose) after collecting 20 µL supernatant as SN (supernatant […]
(§12) ) samples. […]

DESI2 = target: T2, DESI2 (Homo sapiens, UniProt Q9BSY9)
T2 construct: endogenous in cells; host or cells: HEK293T
T2 sequence (Q9BSY9 whole entry): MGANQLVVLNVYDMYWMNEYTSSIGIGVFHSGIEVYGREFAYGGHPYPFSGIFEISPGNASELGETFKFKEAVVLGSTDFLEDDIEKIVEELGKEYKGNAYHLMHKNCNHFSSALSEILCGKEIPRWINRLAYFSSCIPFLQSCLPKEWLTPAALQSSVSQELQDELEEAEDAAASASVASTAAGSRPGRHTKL
Procedure: as §1, §2, §3, §4, §5, §6, §7, §8, §9, §10, §11, §12

ALDH1B1 = target: T3, ALDH1B1 (Homo sapiens, UniProt P30837)
T3 construct: endogenous in cells; host or cells: HEK293T
T3 sequence (P30837 18-517): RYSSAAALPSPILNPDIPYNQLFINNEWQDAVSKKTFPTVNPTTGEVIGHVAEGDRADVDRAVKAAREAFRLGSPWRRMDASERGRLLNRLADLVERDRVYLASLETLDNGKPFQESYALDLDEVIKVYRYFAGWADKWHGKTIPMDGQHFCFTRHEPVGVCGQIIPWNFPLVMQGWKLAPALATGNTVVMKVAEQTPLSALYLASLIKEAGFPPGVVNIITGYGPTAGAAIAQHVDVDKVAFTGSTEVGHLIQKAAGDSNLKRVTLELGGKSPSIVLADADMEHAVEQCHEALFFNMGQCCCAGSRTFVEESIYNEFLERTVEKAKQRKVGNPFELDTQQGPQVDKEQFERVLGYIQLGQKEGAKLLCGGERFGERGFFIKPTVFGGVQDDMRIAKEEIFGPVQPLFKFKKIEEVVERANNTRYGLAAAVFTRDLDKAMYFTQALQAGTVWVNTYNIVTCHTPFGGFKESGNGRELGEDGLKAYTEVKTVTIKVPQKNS
Procedure: as §1, §2, §3, §4, §5, §6, §7, §8, §9, §10, §11, §12

DESI1 = target: T4, DESI1 (Homo sapiens, UniProt Q6ICB0)
T4 construct: endogenous in cells; host or cells: HEK293T
T4 sequence (Q6ICB0 1-168): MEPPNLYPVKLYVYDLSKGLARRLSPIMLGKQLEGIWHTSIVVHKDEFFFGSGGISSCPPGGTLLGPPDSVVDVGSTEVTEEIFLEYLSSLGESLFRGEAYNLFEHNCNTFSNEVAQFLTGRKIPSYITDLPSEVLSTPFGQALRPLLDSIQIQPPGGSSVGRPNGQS
Procedure: as §1, §2, §3, §4, §5, §6, §7, §8, §9, §10, §11, §12

[1] = IMP-2586 labelling vs DMSO, 30 nM, 10 min, HEK293T (Table S4, Fig.5c)
[2] = IMP-2587 labelling vs DMSO, 30 nM, 10 min, HEK293T (Table S2, Fig.5a)
[3] = compound 1 out-competition with IMP-2587 labelling, HEK293T (Table S3, Fig.5b)
[4] = compound 3 out-competition with IMP-2586 labelling, HEK293T (Table S5, Fig.5d)

## N#CN1CC[C@@H](NC(=O)c2cc(-c3ccccc3Oc3ccc(N=[N+]=[N-])cc3)n[nH]2)C1 [IMP-2586]
ISOC1; [1]
  Difference (log2 fold change of enrichment): 1.71
DESI2; [1]
  Difference (log2 fold change of enrichment): 3.40
ALDH1B1; [1]
  Difference (log2 fold change of enrichment): 2.25
DESI1; [1]
  Difference (log2 fold change of enrichment): 3.04

## C#Cc1cccc(-c2cc(NC(=O)CC3CCN(C#N)C3)on2)c1 (stereo not shown) [IMP-2587]
ISOC1; [2]
  Difference (log2 fold change of enrichment): 4.06
DESI2; [2]
  Difference (log2 fold change of enrichment): 2.02
ALDH1B1; [2]
  Difference (log2 fold change of enrichment): 3.53
DESI1; [2]
  Difference (log2 fold change of enrichment): 3.61

## N#CN1CC[C@H](CC(=O)Nc2cc(-c3cccc(Cl)c3)no2)C1 [compound 1, reference compound]
ISOC1; [3]
  Difference (log2 fold change of enrichment): -3.50
DESI2; [3]
  Difference (log2 fold change of enrichment): -1.75
ALDH1B1; [3]
  Difference (log2 fold change of enrichment): -3.81
DESI1; [3]
  Difference (log2 fold change of enrichment): -3.45

## N#CN1CC[C@@H](NC(=O)c2cc(-c3ccccc3Oc3ccccc3)n[nH]2)C1 [compound 3, reference compound]
ISOC1; [4]
  Difference (log2 fold change of enrichment): -1.80
DESI2; [4]
  Difference (log2 fold change of enrichment): -3.13
ALDH1B1; [4]
  Difference (log2 fold change of enrichment): -1.78
DESI1; [4]
  Difference (log2 fold change of enrichment): -2.81
